# Results reported in patent US20240350456A1, “COMPOSITIONS AND METHODS FOR DIAGNOSING AND TREATING INFLAMMATORY CONDITIONS” (RUTGERS, THE STATE UNIVERSITY OF NEW JERSEY, priority 2023, published 2024).
# Entries after “also recorded” stand apart in the source; their conditions may differ.
# Tested on: C57BL/6 mice with DSS-induced mild colitis
# Experiment: DSS induced mild colitis treatment with LGG metabolites (2.5% DSS)
# Type: in vivo, mouse
# Settings: metabolite i.p. twice
# Method: FIG. 13A-13M. IPA requires Ocln to alleviate LPS-induced leaky epithelium. FIG. 13A, experimental design. Organoids were derived from tamoxifen-inducible, intestine-specific Ocln-knockout (KO) mice generated by crossing a floxed Ocln^fl/fl with Villin-CreERT2 mice. FIG. 13B, Representative images and FIG. 13C, quantitative analysis of permeability assay. LPS was added to CCM media (basolateral side) with and without IPA […] and IAM (200 μM) (n=3 mice). *** P<0.001, compared with WT control, †P<0.05 compared with KO-control. FIG. 13D, Representative images of immunofluorescent staining of Ocln in WT control and Ocln KO conventional mice, L=lumen. MNA improves but ASA exacerbates dextran sodium sulfate (DSS)-induced leaky gut. FIG. 13E, experimental design, evaluation in vivo of metabolites (Met). Methylnicotinamide (MNA. […]) and L-argininosuccinate (ASA. 3.6 mg/kg) were administered (i.p.) twice 1-day before and 3 days after DSS treatment p.o. 4 kDa fluorescein isothiocyanate (FITC)-dextran was gavaged 4 h before sacrifice. FIG. 13F, body weight of DSS-treated mice with and without metabolites, FIG. 13G, representative images of Ocln-stained colon sections (green; left panel) and ECad (red; middle). Merged images (yellow; right panel) depict Ocln location in TJ of MNA-treated but not in DSS-only and ASA-treated colon (arrows). Quantitative fluorescent intensity of Ocln (FIG. 13H) and ECad (FIG. 13I) in the TJ, relative to DSS only controls. FIG. 13J, DSS scoring. FIG. 13K, representative H&E images of DSS, DSS+ MNA and DSS+ASA colon sections. FIG. 13L, In vivo permeability as determined by fluorescent intensity of FITC in serum. FIG. 13M, Serum level of interleukin-6.
# DSS induced mild colitis treatment with LGG metabolites. To assess in vivo impact of metabolites on gut barrier function, conventional C57BL/6 mice (8 weeks of age) were administered with 2.5% dextran sodium sulfate (DSS) in drinking water to induce mild colitis. Animals were intraperitoneal injected with either PBS vehicle, 30 mg/kg methylnicotinamide chloride, or 3.6 mg/kg argininosuccinic acid dissolved in sterile PBS at Day-1 and Day 4 of the experiment. Body weight was recorded daily. At Day 7, 4 hours before sacrifice and collection of blood, animals were gavaged with 600 mg/kg with 4 kDa FITC-dextran. Blood was collected in 5% EDTA and subsequently centrifuged at 3000 g for 5 minutes for plasma collection. FITC readings were collected by diluting 25 μl of plasma in 75 μl of PBS and analyzed using a Glomax (Promega, GMMTE9032) with Ex490/Em510-570 filter cube module. Serum concentration of interleukin-6 (Cat. No. Biolegend 431304) was also determined. Ileum and colon sections were collected, fixed in 4% paraformaldehyde, processed for embedding in paraffin wax. Pathohistology of intestine was observed by routine H&E staining.
smiles,measurement,setting,value
"C[n+]1cccc(C(N)=O)c1 [Methylnicotinamide, 1-methynicotinamide]",E-cad abundance and localization in colonic epithelial cells,,significantly increased
same,Ocln expression in colonic epithelium,,significantly elevated Ocln expression
same,pathology score (epithelial cell disruption and immune cell infiltration),,improved pathology score
same,DSS-induced leaky gut (overall),listed as MNA,sealed the leaky gut; also recorded: improves
same,serum IL-6 level,listed as MNA,decreased; also recorded: reduced serum proinflammatory IL-6 levels
